Assay results from PMC7660650, “Chemical Starting Matter for HNF4α Ligand Discovery and Chemogenomics” (International Journal of Molecular Sciences, 2020).

Each compound was assayed against T1, Gal4-HNF4α (human HNF4α LBD) (Homo sapiens, UniProt P41235) (assay: Hybrid Gal4-HNF4α reporter gene assay in transiently transfected HEK293T cells). Details: Table S1, primary screening, 50 µM.
T1 construct: uniprot entry: P41235-1, residues 142-377; expressed in transfected cells; host or cells: HEK293T
T1 sequence (P41235 142-377): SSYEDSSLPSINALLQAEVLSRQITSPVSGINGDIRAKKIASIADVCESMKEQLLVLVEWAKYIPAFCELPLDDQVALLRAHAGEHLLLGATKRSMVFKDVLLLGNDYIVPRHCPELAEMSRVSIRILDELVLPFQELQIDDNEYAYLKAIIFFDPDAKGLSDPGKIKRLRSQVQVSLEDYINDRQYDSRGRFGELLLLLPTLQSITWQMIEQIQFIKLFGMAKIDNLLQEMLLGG
Format: cell-based

Row | Structure (SMILES) | HNF4a-screening_activity_(mean_of_n=2)
1 | NC1CCC(=O)NC1=O (stereo not drawn) [Prestw-Frag-3716, NC1CCC(=O)NC1=O] | 1.139
2 | CC(O)(C(=O)O)c1ccccc1 (stereo not drawn) [Prestw-Frag-3717, CC(O)(C(O)=O)c1ccccc1] | 1.037
3 | O=C1CNCN1 [Prestw-Frag-3718, O=C1CNCN1] | 1.053
4 | c1cncc(CN2CCNCC2)c1 [Prestw-Frag-3722, C(N1CCNCC1)c1cccnc1] | 0.9979
5 | NC(=O)N1CCNCC1 [Prestw-Frag-3723, NC(=O)N1CCNCC1] | 1.067
6 | Cc1n[nH]c(C)c1N [Prestw-Frag-3724, Cc1n[nH]c(C)c1N] | 0.9198
7 | FC(F)(F)c1cc[nH]n1 [Prestw-Frag-3726, FC(F)(F)c1cc[nH]n1] | 0.9056
8 | OCC1CCNCC1 [Prestw-Frag-3727, OCC1CCNCC1] | 0.8559
9 | OCC1CCCNC1 (stereo not drawn) [Prestw-Frag-3728, OCC1CCCNC1] | 1.103
10 | c1cc(N2CCNCC2)ncn1 [Prestw-Frag-3729, C1CN(CCN1)c1ccncn1] | 1.017
11 | N#CCC(=O)N1CCCCC1 [Prestw-Frag-3730, O=C(CC#N)N1CCCCC1] | 0.9277
12 | CCN(CC)C(=O)CC#N [Prestw-Frag-3731, CCN(CC)C(=O)CC#N] | 0.9542
13 | c1ccc2c(c1)NCCO2 [Prestw-Frag-3732, C1COc2ccccc2N1] | 1.144
14 | CC(C)(CN)c1ccccc1 [Prestw-Frag-3733, CC(C)(CN)c1ccccc1] | 1.132
15 | O=c1[nH]cncc1-c1ccccc1 [Prestw-Frag-3734, O=c1[nH]cncc1-c1ccccc1] | 1.236
16 | Oc1ccccc1N1CCNCC1 [Prestw-Frag-3738, Oc1ccccc1N1CCNCC1] | 0.9708
17 | COc1ccc2c(c1)CCC(C(=O)O)C2 (stereo not drawn) [Prestw-Frag-3739, COc1ccc2CC(CCc2c1)C(O)=O] | 0.6963

Row | Structure (SMILES) | HNF4a-screening_activity_(mean_of_n=2)
18 | Cn1c(N)nc2ccccc21 [Prestw-Frag-3740, Cn1c(N)nc2ccccc12] | 1.19
19 | OCc1ccc2c(c1)OCO2 [Prestw-Frag-3741, OCc1ccc2OCOc2c1] | 1.114
20 | Cc1cc(=O)n(-c2ccccc2)[nH]1 [Prestw-Frag-3742, Cc1cc(=O)n([nH]1)-c1ccccc1] | 0.8727
21 | Cc1nc(-c2ccccc2)cs1 [Prestw-Frag-3743, Cc1nc(cs1)-c1ccccc1] | 1.125
22 | c1ccc(-n2ccnc2)cc1 [Prestw-Frag-3744, c1cn(cn1)-c1ccccc1] | 1.014
23 | Cc1nc(-c2ccccc2F)cs1 [Prestw-Frag-3745, Cc1nc(cs1)-c1ccccc1F] | 1.103
24 | NCCc1ccc(F)cc1F [Prestw-Frag-3746, NCCc1ccc(F)cc1F] | 1.162
25 | NCc1cscn1 [Prestw-Frag-3747, NCc1cscn1] | 0.9617
26 | NCCOCc1ccccc1 [Prestw-Frag-3749, NCCOCc1ccccc1] | 0.8708
27 | c1ccc2c(c1)CCNCC2 [Prestw-Frag-3750, C1Cc2ccccc2CCN1] | 1.099
28 | NCC1(c2ccccc2)CC1 [Prestw-Frag-3751, NCC1(CC1)c1ccccc1] | 0.9761
29 | Cc1[nH]cnc1CO [Prestw-Frag-3752, Cc1[nH]cnc1CO] | 1.105
30 | c1nc(C2CCNCC2)c[nH]1 [Prestw-Frag-3753, C1CC(CCN1)c1c[nH]cn1] | 0.9547
31 | CNC(=O)c1cc(Cl)c(N)cc1OC [Prestw-Frag-3754, CNC(=O)c1cc(Cl)c(N)cc1OC] | 1.064
32 | CC(CO)Nc1ccccc1 (stereo not drawn) [Prestw-Frag-3755, CC(CO)Nc1ccccc1] | 0.8925
33 | CC(=O)C1CCNCC1 [Prestw-Frag-3756, CC(=O)C1CCNCC1] | 0.9377
